The values that follow come from US20240392250A1, “HIGH-THROUGHPUT SELECTION AND FABRICATION OF BIOMATERIAL-ENCAPSULATED CELL MASS AND USES THEREOF” (BioArchitec Group Limited, priority 2022, published 2024).

The test concerns HT-29 spheroids encapsulated BECM. Put plainly: Drug response of HT-29 spheroid BECMs by CELLTITER GLO 3D cell viability assay. It counts as cell-based. The note with it: biomaterial-encapsulated HT-29 cancer cell spheroids; Osimertinib 0, 2, 4 and 8 μM; 72 hrs at 37° C.; n=10; FIG. 7. The text has this: Commercially available 3D cell viability assay, CELLTITER GLO (Promega Corp.), was used to determine the cell viability of the BECMs.
Background: Cellular ATP, detected with luciferase, serves as a proxy for viable cell number.

As to `C=CC(=O)Nc1cc(Nc2nccc(-c3cn(C)c4ccccc34)n2)c(OC)cc1N(C)CCN(C)C` [Osimertinib], the “cell viability of the BECMs (dose-response)” value is reported as “a typical 3D cell culture viability dose-response was obtained”.
